From patent US7227038B2, “Adamantane derivatives, processes for their preparation and pharmaceutical composition containing them” (AstraZeneca AB, priority 2003, dated 2007) come the findings set out here.

Counter-ions that a name gives are not always drawn. Some results are limits rather than exact numbers.

Broadly, the melting point is the temperature, or range, at which the solid turns liquid.

One series has as its target T1, P2X7 receptor (Homo sapiens, UniProt Q99572).
T1 construct: 200 μl of a suspension of THP-1 cells; endogenous in cells; host or cells: THP-1 cells
T1 sequence (Q99572 1-595): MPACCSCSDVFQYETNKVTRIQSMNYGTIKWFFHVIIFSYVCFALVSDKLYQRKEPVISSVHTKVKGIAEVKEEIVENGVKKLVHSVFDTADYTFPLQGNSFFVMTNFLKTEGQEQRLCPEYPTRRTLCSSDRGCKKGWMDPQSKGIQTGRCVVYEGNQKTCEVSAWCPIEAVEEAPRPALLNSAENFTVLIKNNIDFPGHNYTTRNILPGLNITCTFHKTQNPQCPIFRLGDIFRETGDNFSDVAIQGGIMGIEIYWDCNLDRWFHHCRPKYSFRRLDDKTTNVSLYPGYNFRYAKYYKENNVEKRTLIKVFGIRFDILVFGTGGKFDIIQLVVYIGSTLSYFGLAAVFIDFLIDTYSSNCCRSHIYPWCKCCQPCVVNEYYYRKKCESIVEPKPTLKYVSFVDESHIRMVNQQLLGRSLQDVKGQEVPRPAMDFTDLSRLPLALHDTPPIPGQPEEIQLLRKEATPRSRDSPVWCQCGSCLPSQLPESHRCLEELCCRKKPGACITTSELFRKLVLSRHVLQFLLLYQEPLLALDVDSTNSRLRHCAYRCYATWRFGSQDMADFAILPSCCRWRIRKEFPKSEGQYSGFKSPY
The series can be described thus: bbATP-induced ethidium bromide uptake (fluorescence) in THP-1 cells, P2X7 receptor antagonist activity. It counts as cell-based. Particulars: 10^-5M bbATP, 37° C. for one hour, read-out: pIC50 (negative logarithm of the concentration of test compound necessary to reduce the bbATP agonist activity by 50%) (converted). The text has this:
Certain compounds such as benzoylbenzoyl adenosine triphosphate (bbATP) are known to be agonists of the P2X7 receptor, effecting the formation of pores in the plasma membrane (Drug Development Research (1996), 37(3), p.126). Consequently, when the receptor is activated using bbATP in the presence of ethidium bromide (a fluorescent DNA probe), an increase in the fluorescence of intracellular DNA-bound ethidium bromide is observed. The increase in fluorescence can be used as a measure of P2X7 receptor activation and therefore to quantify the effect of a compound on the P2X7 receptor.
In this manner, each of the title compounds of the Examples was tested for antagonist activity at the P2X7 receptor. Thus, the test was performed in 96-well flat bottomed microtitre plates, the wells being filled with 250 μl of test solution comprising 200 μl of a suspension of THP-1 cells (2.5×10^6 cells/ml) containing 10^−4M ethidium bromide, 25 μl of a high potassium buffer solution containing 10^−5M bbATP, and 25 μl of the high potassium buffer solution containing 3×10^−5M test compound. The plate was covered with a plastics sheet and incubated at 37° C. for one hour. The plate was then read in a Perkin-Elmer fluorescent plate reader, excitation 520 nm, emission 595 nm, slit widths: Ex 15 nm, Em 20 nm. […]
As to `CNC[C@@H](O)CCc1ccc(Cl)c(C(=O)NCC23CC4CC(CC(C4)C2)C3)c1.Cl` [Example 1, 2-Chloro-5-[(3S)-3-hydroxy-4-(methylamino)butyl]-N-(tricyclo[3.3.1.1^3,7]dec-1-ylmethyl)benzamide, hydrochloride], the IC50 was 10 nM.

With `CN(C)C[C@H](O)Cc1ccc(Cl)c(C(=O)NCC23CC4CC(CC(C4)C2)C3)c1` [Example 8, 2-Chloro-5-[(2R)-3-(dimethylamino)-2-hydroxypropyl]-N-(tricyclo[3.3.1.1^3,7]dec-1-ylmethyl)-benzamide, hydrochloride], the IC50 is 3.98 nM.

System in another series: not given
Assay: not given
Conditions: not given
Turning to `CNC[C@@H](O)Cc1ccc(Cl)c(C(=O)NCC23CC4CC(CC(C4)C2)C3)c1` (as salt: hydrochloride), the melting point stood at 196 °C.

Take `CCNC[C@H](O)Cc1ccc(Cl)c(C(=O)NCC23CC4CC(CC(C4)C2)C3)c1` (as salt: hydrochloride): the melting point was 218 °C.

`CC(C)NC[C@H](O)Cc1ccc(Cl)c(C(=O)NCC23CC4CC(CC(C4)C2)C3)c1` (as salt: hydrochloride) gave a melting point of 189 °C.

Compound `O=C(NCC12CC3CC(CC(C3)C1)C2)c1cc(C[C@@H](O)CNCCCO)ccc1Cl` (as salt: hydrochloride) returned a melting point of 225 °C.

Compound `CCNC[C@@H](O)Cc1ccc(Cl)c(C(=O)NCC23CC4CC(CC(C4)C2)C3)c1` (as salt: hydrochloride) [Example 14, 2-Chloro-5-[(2S)-3-(ethylamino)-2-hydroxypropyl]-N-(tricyclo [3.3.1.1^3,7]dec-1-ylmethyl)-benzamide, hydrochloride salt] gave a melting point of 214 °C.

Regarding `CNC[C@@H](O)CCc1ccc(Cl)c(C(=O)NCC23CC4CC(CC(C4)C2)C3)c1.Cl` [Example 1, 2-Chloro-5-[(3S)-3-hydroxy-4-(methylamino)butyl]-N-(tricyclo[3.3.1.1^3,7]dec-1-ylmethyl)benzamide, hydrochloride], the melting point was > 200 °C (dec.).
